Publication PMC6138237, “Machine intelligence decrypts β-lapachone as an allosteric 5-lipoxygenase inhibitor” (Chemical Science, 2018)
Where two headings read alike, the source gives them in different places.

Assays:
Format in all cases: biochemical
CHK1 = molecular target: T1, CHK1 (Homo sapiens, UniProt O14757); assay: ExpresS Diversity Kinase Profile, Cerep (LANCE): CHK1
T1 sequence (O14757 1-476): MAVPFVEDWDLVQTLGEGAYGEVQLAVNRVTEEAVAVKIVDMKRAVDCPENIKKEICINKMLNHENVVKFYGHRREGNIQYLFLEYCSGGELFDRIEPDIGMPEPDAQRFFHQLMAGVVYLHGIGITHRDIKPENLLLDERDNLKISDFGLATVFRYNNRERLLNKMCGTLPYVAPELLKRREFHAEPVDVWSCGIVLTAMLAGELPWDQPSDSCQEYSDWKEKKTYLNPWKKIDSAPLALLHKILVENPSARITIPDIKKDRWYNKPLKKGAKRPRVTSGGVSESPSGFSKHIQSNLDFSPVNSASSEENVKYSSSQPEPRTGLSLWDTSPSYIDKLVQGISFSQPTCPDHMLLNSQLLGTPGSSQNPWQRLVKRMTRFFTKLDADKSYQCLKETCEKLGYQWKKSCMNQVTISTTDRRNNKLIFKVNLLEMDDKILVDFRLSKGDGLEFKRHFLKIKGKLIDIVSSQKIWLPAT

IRK = IRK (Homo sapiens, UniProt P06213); assay: ExpresS Diversity Kinase Profile, Cerep (LANCE): IRK
PDK1 = molecular target: T2, PDK1 (Homo sapiens, UniProt O15530); assay: ExpresS Diversity Kinase Profile, Cerep (LANCE): PDK1
T2 sequence (O15530 1-556): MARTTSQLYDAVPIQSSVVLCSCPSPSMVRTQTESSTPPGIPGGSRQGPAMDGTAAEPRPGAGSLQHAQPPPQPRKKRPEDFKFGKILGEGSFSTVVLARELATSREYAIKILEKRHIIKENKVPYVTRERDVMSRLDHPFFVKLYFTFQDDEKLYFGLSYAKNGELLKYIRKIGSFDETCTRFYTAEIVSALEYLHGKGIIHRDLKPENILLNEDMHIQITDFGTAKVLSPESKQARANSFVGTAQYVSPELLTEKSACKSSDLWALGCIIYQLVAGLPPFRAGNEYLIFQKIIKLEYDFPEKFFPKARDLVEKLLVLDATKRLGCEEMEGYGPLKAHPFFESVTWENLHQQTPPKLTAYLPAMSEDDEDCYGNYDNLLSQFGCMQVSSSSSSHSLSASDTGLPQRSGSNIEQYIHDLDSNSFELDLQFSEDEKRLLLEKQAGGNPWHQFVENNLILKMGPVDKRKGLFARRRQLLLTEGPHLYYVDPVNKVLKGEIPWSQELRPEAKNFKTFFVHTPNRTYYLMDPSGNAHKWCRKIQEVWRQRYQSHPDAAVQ

c-Met = c-Met (Homo sapiens, UniProt P08581); assay: ExpresS Diversity Kinase Profile, Cerep (LANCE): c-Met
c-Met, sequence (P08581 25-1390): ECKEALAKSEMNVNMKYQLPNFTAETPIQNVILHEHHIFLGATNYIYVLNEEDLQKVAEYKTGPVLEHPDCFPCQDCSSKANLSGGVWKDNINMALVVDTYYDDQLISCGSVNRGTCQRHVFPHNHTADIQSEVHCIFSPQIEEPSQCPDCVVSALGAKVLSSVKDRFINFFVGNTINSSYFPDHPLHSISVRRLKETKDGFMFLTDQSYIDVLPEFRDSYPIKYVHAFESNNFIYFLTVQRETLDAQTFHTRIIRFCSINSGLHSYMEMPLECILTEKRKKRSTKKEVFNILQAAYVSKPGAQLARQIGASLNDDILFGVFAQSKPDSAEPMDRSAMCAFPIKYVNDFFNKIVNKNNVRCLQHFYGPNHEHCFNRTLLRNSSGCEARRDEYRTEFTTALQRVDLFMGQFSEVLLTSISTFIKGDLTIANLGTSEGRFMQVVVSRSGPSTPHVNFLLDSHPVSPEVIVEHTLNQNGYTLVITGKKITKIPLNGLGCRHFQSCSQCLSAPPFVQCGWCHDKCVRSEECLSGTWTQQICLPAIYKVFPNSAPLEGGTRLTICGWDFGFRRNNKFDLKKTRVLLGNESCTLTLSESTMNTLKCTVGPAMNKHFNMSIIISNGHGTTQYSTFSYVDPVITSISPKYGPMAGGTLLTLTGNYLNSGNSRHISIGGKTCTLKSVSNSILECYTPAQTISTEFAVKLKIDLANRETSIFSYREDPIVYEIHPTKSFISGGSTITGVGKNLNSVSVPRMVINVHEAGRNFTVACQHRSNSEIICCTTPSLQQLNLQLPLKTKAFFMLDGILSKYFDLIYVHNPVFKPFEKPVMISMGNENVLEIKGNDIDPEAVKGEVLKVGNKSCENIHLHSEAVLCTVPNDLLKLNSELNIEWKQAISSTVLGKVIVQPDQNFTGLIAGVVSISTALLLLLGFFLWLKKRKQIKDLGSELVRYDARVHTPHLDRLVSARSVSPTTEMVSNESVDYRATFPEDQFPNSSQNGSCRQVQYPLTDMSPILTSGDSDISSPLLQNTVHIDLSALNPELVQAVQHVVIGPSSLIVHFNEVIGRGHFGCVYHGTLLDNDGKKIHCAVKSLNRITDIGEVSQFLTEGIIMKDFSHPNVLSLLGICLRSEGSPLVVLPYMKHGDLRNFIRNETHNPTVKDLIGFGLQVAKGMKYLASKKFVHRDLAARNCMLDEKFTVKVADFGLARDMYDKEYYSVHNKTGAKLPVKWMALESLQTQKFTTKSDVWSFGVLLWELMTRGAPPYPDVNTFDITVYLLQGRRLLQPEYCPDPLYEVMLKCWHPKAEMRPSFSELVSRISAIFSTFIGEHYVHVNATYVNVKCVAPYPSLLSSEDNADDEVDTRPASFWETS

Akt1/PKBα = Akt1/PKBα (Homo sapiens, UniProt P31749); assay: ExpresS Diversity Kinase Profile, Cerep (LANCE): Akt1/PKBα; settings: for inhibition at 150 µM: Akt1/PKBα, Flag: Interference
Akt1/PKBα, sequence (P31749 whole entry): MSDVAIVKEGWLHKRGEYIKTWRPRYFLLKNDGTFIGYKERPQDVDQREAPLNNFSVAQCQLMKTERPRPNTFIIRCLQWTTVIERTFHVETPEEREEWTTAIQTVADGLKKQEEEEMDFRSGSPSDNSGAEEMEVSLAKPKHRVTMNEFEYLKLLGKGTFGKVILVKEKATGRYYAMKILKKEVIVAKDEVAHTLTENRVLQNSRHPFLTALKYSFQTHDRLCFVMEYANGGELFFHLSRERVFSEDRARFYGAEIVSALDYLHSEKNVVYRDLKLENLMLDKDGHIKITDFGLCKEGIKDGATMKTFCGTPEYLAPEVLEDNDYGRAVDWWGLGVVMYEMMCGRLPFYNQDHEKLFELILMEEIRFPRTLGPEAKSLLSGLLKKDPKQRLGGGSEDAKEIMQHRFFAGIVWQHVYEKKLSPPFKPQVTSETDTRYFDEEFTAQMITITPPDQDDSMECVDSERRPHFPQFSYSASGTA

RAF-1 = RAF-1 (Homo sapiens, UniProt P04049); assay: ExpresS Diversity Kinase Profile, Cerep (LANCE): RAF-1; settings: for inhibition at 150 µM: RAF-1
RAF-1, sequence (P04049 whole entry): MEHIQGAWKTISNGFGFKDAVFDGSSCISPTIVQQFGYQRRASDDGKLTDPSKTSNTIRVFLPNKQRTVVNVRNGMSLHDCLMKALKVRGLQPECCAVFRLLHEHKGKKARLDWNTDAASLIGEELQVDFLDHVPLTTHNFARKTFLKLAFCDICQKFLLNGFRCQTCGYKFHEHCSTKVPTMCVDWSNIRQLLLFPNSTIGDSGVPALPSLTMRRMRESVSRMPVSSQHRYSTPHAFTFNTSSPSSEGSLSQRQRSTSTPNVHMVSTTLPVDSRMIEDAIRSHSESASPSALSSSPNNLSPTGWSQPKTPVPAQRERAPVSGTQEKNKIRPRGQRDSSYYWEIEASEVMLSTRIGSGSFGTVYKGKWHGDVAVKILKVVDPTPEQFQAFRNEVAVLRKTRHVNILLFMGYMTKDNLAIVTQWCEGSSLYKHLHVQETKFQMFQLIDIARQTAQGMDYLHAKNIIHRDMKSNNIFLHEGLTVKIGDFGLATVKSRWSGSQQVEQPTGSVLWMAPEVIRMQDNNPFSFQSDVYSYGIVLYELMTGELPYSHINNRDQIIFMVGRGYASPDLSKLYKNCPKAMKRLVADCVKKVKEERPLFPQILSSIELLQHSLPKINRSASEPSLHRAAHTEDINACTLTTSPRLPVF

Src = Src (Homo sapiens, UniProt P12931); assay: ExpresS Diversity Kinase Profile, Cerep (LANCE): Src
Src, sequence (P12931 whole entry): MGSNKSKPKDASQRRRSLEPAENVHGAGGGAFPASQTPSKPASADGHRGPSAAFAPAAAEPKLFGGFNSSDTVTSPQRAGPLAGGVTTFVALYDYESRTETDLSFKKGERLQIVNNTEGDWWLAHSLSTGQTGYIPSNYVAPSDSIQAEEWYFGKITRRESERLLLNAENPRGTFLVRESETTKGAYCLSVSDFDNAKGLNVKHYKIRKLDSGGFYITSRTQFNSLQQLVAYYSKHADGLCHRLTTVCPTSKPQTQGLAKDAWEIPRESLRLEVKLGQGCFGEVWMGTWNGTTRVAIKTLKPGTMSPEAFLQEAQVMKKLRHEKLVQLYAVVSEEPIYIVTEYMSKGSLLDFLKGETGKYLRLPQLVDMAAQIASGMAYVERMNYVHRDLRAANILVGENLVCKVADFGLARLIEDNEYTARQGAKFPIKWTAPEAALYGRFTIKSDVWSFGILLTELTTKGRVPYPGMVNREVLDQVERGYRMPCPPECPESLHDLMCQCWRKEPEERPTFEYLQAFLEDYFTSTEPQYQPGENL

MARK1 = MARK1 (Homo sapiens, UniProt Q9P0L2); assay: ExpresS Diversity Kinase Profile, Cerep (LANCE): MARK1
AurA = molecular target: T3, AurA (Homo sapiens, UniProt O14965); assay: ExpresS Diversity Kinase Profile, Cerep (LANCE): AurA
T3 sequence (O14965 1-403): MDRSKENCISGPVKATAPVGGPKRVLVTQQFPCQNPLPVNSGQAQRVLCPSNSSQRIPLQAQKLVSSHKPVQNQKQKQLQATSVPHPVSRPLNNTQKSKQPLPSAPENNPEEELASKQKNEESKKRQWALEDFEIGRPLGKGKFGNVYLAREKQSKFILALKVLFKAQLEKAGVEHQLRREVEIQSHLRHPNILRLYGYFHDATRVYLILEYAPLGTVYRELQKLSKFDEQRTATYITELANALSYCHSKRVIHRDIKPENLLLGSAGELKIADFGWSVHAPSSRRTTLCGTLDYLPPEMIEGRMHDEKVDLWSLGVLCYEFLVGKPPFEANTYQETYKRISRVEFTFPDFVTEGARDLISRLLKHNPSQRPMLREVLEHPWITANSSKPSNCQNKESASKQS

EphA2 = EphA2 (Homo sapiens, UniProt P29317); assay: ExpresS Diversity Kinase Profile, Cerep (LANCE): EphA2
EphA2, sequence (P29317 24-976): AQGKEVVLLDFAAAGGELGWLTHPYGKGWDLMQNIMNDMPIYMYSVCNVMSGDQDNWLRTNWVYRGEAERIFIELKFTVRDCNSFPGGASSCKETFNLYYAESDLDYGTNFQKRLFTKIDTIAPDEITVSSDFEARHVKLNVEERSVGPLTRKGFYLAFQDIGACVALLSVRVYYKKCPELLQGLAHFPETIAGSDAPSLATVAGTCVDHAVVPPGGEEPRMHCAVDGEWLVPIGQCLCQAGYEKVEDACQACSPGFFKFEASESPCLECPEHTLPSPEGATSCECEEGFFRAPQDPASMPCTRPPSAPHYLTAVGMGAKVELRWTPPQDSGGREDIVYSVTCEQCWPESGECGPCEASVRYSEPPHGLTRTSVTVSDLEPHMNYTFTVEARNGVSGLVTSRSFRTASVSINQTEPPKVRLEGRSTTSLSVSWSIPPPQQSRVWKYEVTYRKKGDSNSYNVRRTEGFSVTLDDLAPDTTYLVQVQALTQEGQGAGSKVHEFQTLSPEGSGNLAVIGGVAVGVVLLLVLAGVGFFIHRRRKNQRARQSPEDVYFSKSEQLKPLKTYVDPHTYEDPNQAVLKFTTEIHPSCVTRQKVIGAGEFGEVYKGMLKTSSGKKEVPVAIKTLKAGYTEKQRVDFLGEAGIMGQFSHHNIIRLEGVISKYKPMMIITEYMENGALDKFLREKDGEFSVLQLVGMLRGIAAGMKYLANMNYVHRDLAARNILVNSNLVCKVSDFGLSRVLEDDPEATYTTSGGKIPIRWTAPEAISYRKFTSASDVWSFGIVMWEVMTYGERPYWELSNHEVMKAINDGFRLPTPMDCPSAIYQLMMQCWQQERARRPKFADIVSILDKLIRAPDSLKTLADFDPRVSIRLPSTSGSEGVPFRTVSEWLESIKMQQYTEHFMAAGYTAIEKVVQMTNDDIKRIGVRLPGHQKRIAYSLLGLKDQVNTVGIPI

PAK2 = PAK2 (Homo sapiens, UniProt Q13177); assay: ExpresS Diversity Kinase Profile, Cerep (LANCE): PAK2
PAK2, sequence (Q13177 whole entry): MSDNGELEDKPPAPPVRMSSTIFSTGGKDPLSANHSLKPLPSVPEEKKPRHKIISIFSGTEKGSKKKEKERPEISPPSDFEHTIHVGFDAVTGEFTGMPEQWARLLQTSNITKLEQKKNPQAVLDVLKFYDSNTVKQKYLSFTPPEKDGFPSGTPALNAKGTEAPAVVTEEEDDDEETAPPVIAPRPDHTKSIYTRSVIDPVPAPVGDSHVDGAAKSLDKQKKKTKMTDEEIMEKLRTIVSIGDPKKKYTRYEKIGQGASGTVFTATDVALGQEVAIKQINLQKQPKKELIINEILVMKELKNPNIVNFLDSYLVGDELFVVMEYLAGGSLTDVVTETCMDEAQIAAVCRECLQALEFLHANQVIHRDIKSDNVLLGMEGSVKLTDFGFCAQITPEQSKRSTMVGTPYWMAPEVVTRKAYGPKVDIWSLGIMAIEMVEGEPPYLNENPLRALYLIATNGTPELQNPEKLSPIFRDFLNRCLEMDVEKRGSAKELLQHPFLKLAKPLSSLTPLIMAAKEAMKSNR

[1] = Flag: Interference, read-out: % Inhibition of control values, 1st measurement
[2] = Flag: Interference, read-out: % Inhibition of control values, 2nd measurement
[3] = n = 2, Flag: Interference, read-out: % Inhibition of control values, Mean
[4] = n = 2, read-out: % Inhibition of control values, Mean
[5] = read-out: % Inhibition of control values, 1st measurement
[6] = read-out: % Inhibition of control values, 2nd measurement

## CN[C@@H]1C[C@H]2O[C@@](C)([C@@H]1OC)n1c3ccccc3c3c4c(c5c6ccccc6n2c5c31)C(=O)NC4 [Staurosporine, reference compound]
CHK1; control
  nHill: 1.5
IRK; control
  nHill: 1.0
PDK1; control
  nHill: > 3
c-Met; control
  nHill: 1.8
Akt1/PKBα; Akt/PKBα, control
  nHill: 0.8
RAF-1; RAF1, control
  nHill: 2.4
Src; control
  nHill: 1.0
MARK1; control
  nHill: 2.5
AurA; control
  nHill: 2.5
EphA2; control
  nHill: 1.6
PAK2; control
  nHill: > 3

## CC1(C)CCC2=C(O1)c1ccccc1C(=O)C2=O [β-Lapachone]
CHK1; [1]
  inhibition at 150 µM: 9.4%
CHK1; [2]
  inhibition at 150 µM: 19.7%
CHK1; [3]
  inhibition at 150 µM: 14.5%
IRK; [4]
  inhibition at 150 µM: 50.8%
IRK; [5]
  inhibition at 150 µM: 50.9%
IRK; [6]
  inhibition at 150 µM: 50.6%
PDK1; [4]
  inhibition at 150 µM: 1.4%
PDK1; [5]
  inhibition at 150 µM: 8.9%
PDK1; [6]
  inhibition at 150 µM: -6.1%
c-Met; [1]
  inhibition at 150 µM: 45.3%
c-Met; [2]
  inhibition at 150 µM: 50.6%
c-Met; [3]
  inhibition at 150 µM: 47.9%
Akt1/PKBα; [5]
  inhibition at 150 µM: 65.8%
Akt1/PKBα; [6]
  inhibition at 150 µM: 55%
Akt1/PKBα; [4]
  inhibition at 150 µM: 60.4%
RAF-1; [4]
  inhibition at 150 µM: 57.3%
RAF-1; [5]
  inhibition at 150 µM: 55.4%
RAF-1; [6]
  inhibition at 150 µM: 59.3%
Src; [4]
  inhibition at 150 µM: 37.8%
Src; [5]
  inhibition at 150 µM: 36.1%
Src; [6]
  inhibition at 150 µM: 39.5%
MARK1; [4]
  inhibition at 150 µM: -57.4%
MARK1; [5]
  inhibition at 150 µM: -70.1%
MARK1; [6]
  inhibition at 150 µM: -44.7%
AurA; [1]
  inhibition at 150 µM: -16.5%
AurA; [2]
  inhibition at 150 µM: 0.2%
AurA; [3]
  inhibition at 150 µM: -8.1%
EphA2; [1]
  inhibition at 150 µM: 63.7%
EphA2; [2]
  inhibition at 150 µM: 63.5%
EphA2; [3]
  inhibition at 150 µM: 63.6%
PAK2; [1]
  inhibition at 150 µM: -34%
PAK2; [2]
  inhibition at 150 µM: 1.5%
PAK2; [3]
  inhibition at 150 µM: -16.2%
